Reference: PubChem BioAssay (NCI)
Several values for one entry are separate records, joined by “and”; a condition that tells them apart may be missing. Equal values may be shown once.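 Step 1: Grow cells in 96-well plates. Step 2: Expose to compound for 48 hours at 5 concentrations. Step 3: Interpolate endpoints linearly; if unreached, use highest concentration. Here, GI50 denotes the concentration required for 50% inhibition of growth. TGI marks complete inhibition of growth.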

Key:
Experiment in all cases: growth of human tumour cells (NCI), 48 h
COLO 205 colon = tested on: COLO 205 colon
HCT-116 colon = tested on: HCT-116 colon
HS 578T breast = tested on: HS 578T breast
K-562 leukemia = tested on: K-562 leukemia
KM12 colon = tested on: KM12 colon
OVCAR-5 ovarian = tested on: OVCAR-5 ovarian
SF-268 CNS = tested on: SF-268 CNS
SF-295 CNS = tested on: SF-295 CNS
SK-MEL-28 melanoma = tested on: SK-MEL-28 melanoma
SNB-19 CNS = tested on: SNB-19 CNS

Row | Compound | GI50 (COLO 205 colon) [µM] | TGI (COLO 205 colon) | GI50 (HCT-116 colon) [µM] | TGI (HCT-116 colon) [µM] | GI50 (HS 578T breast) [µM] | TGI (HS 578T breast) | GI50 (K-562 leukemia) [µM] | TGI (K-562 leukemia) [µM] | GI50 (KM12 colon) [µM] | TGI (KM12 colon) [µM] | GI50 (OVCAR-5 ovarian) [µM] | TGI (OVCAR-5 ovarian) | GI50 (SF-268 CNS) [µM] | TGI (SF-268 CNS) [µM] | GI50 (SF-295 CNS) [µM] | TGI (SF-295 CNS) | GI50 (SK-MEL-28 melanoma) [µM] | TGI (SK-MEL-28 melanoma) | GI50 (SNB-19 CNS) [µM] | TGI (SNB-19 CNS) [µM]
1 | CCCCN(CCCC)c1ccc(C(=NC(C)CCCN(CC)CC)c2ccc(N(C)C)cc2)cc1 (stereo not given) | 0.85 | 1.69 µM | 0.537 | 1.27 | 0.884 | 2.05 µM | 0.153 | 0.549 | 0.965 | 2.33 | 1.31 | 3.47 µM | 0.864 | 2.06 | 0.88 | 1.73 µM | 0.939 | 1.92 µM | 1.14 | 2.82
2 | O=C(CN(/C=C/C(=O)C(F)(F)F)c1ccccc1)c1ccc(Cl)c(Cl)c1 | 19.5 | 42.4 µM | 12.7 | > 100 | 14.8 | 49.6 µM | 15.7 | 37.6 | 12.3 | 28.4 | 17 | 33.9 µM | 18.4 | 40.7 | 12.4 | 27.5 µM | 23.9 | 56.2 µM | 20.3 | 46.4
3 | O=C(CCCSc1nc(-c2ccccc2)cc(-c2ccc(Cl)cc2)n1)NO | 2.9 | 12.1 µM | 1.04 | 13.1 | 4.78 | 24 µM | 1.51 | 26.1 | 2.96 | 14.2 | 2.12 | 8.48 µM | 1.88 | 7.14 | 2.03 | 5.71 µM | 3.51 | 15.3 µM | 3.12 | 14.9
4 | O=C(c1cccnc1)c1cc(-c2ccccn2)c(=O)n2ccccc12 | > 100 | > 100 µM | > 100 | > 100 | > 100 | > 100 µM | > 100 | > 100 | > 100 | > 100 | > 100 | > 100 µM | > 100 | > 100 | > 100 | > 100 µM | > 100 | > 100 µM | > 100 | > 100
5 | c1ccc(CSc2nnc3c4ccccc4c4ccccc4c3n2)cc1 | – | > 100 µM | – | > 100 | – | > 100 µM | – | > 100 | – | > 100 | – | > 100 µM | – | 67.9 | – | 62.3 µM | – | > 100 µM | – | > 78.1
6 | CC(C)C[C@H](NC(=O)[C@@H](O)[C@H](N)Cc1ccc([N+](=O)[O-])cc1)C(=O)O | > 25 | > 25 µM | > 25 | > 25 | > 25 | > 25 µM | > 25 | > 25 | > 25 | > 25 | > 25 | > 25 µM | > 25 | > 25 | > 25 | > 25 µM | > 25 | > 25 µM | > 25 | > 25
7 | CN(C)CC1CCCCCC(CN(C)C)C1=O (stereo not given) | 1.2 | 2.68 µM | 1.07 | 3.91 | 21 | > 64.3 µM | 1.44 | 7.07 | 15.9 | 37.1 | 8.29 | 22 µM | 7.72 | 23.4 | 19.7 | 47.2 µM | 3.65 | 10.5 µM | 41.7 | > 100
8 | O=C(COc1cccc(/C=C2\COc3ccc(Cl)cc3C2=O)c1)c1ccc(Cl)cc1 | 15 | 29.8 µM | 3.28 | 11.3 | 18.8 | 48.7 µM | 2.67 | > 100 | 2.79 | 11.2 | 13 | 25.8 µM | 13.9 | 26.9 | 24.9 | 39.6 µM | 18.3 | 32.2 µM | 14.5 | 27.7
9 | COc1cc2c3c(n(C)c(=O)c2cc1OC)-c1cc2c(cc1/C3=C\C(N)CN)OCO2 (stereo not given) | 2.08 | 12.1 µM | 1.16 | 2.44 | 4.2 | 41.4 µM | 3.74 | > 71.5 | 2.39 | 28.3 | 4.43 | > 30.9 µM | 0.692 | 15 | 1.31 | 7.79 µM | 4.45 | 41.8 µM | 1.36 | > 49.3
10 | S=C(Nc1cc(Cl)c(Cl)cc1Cl)SCc1ccccc1 | – | > 100 µM | – | 83 | – | > 100 µM | – | 45.1 | – | 36.6 | – | 46.5 µM | – | > 100 | – | 42.6 µM | – | > 100 µM | – | 96.9
11 | CCCOc1nc(SCCC)nc2c1cnn2-c1ccccc1 | > 100 | > 100 µM | 55.3 | > 100 | > 100 | > 100 µM | > 100 | > 100 | 93.1 | > 100 | > 100 | > 100 µM | > 100 | > 100 | 31.8 | > 100 µM | > 100 | > 100 µM | > 100 | > 100
12 | CCCCCCCOc1c(OC)cc(C2CC(=O)Nc3c2c(C)nn3-c2nc3ccccc3[nH]2)cc1OC (stereo not given) | 4.34 | > 100 µM | 3.49 | > 100 | 1.35 | 4.43 µM | 4.23 | > 100 | 2.81 | 9.81 | 4.39 | > 100 µM | 2.12 | 6.68 | 2.33 | 7.74 µM | 2.77 | 8.61 µM | 3.93 | > 100
13 | CSC1(SC2=NCCN2)SC2(NCCN2)S1 | – | 40.5 µM | – | 31.7 | – | 69.1 µM | – | 81.2 | – | 5.37 | – | 39.6 µM | – | 40.3 | – | 67.6 µM | – | 40.1 µM | – | 41.9
14 | CCN(CC)c1ccc(C(=N)c2ccc(N(C)C)cc2)cc1 | 0.197 | 3.06 µM | 0.155 | 3.39 | 0.19 | 2.67 µM | 0.127 | 12.8 | 0.171 | 4.05 | 2.04 | 6.78 µM | 0.22 | 5.42 | 0.161 | 2.88 µM | 0.384 | 7.13 µM | 2.19 | 10.1
15 | COc1ccc2c(c1)C(C)Cc1c(Cl)nc(C)nc1N2C (stereo not given) | 2.07 | 5.53 µM | 1.84 | 16.4 | 3.98 | 64.4 µM | 0.713 | > 100 | 0.789 | 11.4 | 5.91 | > 100 µM | 2.6 | 18.6 | 1.74 | 7.92 µM | 3.4 | 38.5 µM | 3.48 | 29.5
16 | CS(=O)(=O)Nc1ccc(N=Cc2c(O)[nH]c3ccccc23)cc1 | > 25 | > 25 µM | > 25 | > 25 | > 25 | > 25 µM | > 25 | > 25 | 1.2 | > 25 | > 25 | > 25 µM | > 25 | > 25 | > 25 | > 25 µM | > 25 | > 25 µM | > 25 | > 25
17 | CCN1C(=O)N(CC)C2C1NN=c1s/c(=C\c3cc4ccccc4[nH]3)c(=O)n12 (stereo not given) | 0.0201 | 0.0448 µM | < 0.01 | > 37.2 | < 0.0203 | 9.1 µM | < 0.01 | > 100 | < 0.012 | > 58.6 | < 0.0128 | > 100 µM | < 0.0229 | 20.4 | < 0.0112 | 14.8 µM | 2.77 | > 83 µM | 0.055 | 15.8
18 | Nc1nc(N)c(N=O)c(OCC2CCCCC2)n1 | 15.1 | 37.4 µM and 33.8 µM | – | > 100 | 2.81 | 21 µM and 46.1 µM | – | > 100 | – | > 100 | 17.2 | > 100 µM and 57.8 µM | 5.82 | > 95.4 | – | 61.2 µM and 77.2 µM | 13.2 | > 100 µM and 76.5 µM | – | > 100
19 | COc1ccc(/C=C2\CCC(CN(C)C)C2=O)cc1OC (stereo not given) | – | 10.6 µM | – | 7.01 | – | > 100 µM | – | 9.12 | – | 10.8 | – | 29.8 µM | – | 27.1 | – | 29.2 µM | – | 13.8 µM | – | 30.6
